We go through 27 compounds from patent US8518956B2, “1-(1-(2-ethoxyethyl)-3-ethyl-7-(4-methylpyridin-2-ylamino)-1H-pyrazolo[4,3-d]pyrimidin-5-yl) piperidine-4-carboxylic acid and salts thereof” (priority 2005, dated 2013).

In this assay the target is T1, PDE5 enzyme (Homo sapiens, UniProt O76074).
T1 construct: The PDE5 enzyme isolated from human platelets; from tissue; host or cells: human platelets
Nature of the assay: Method 1: Human Platelet PDE5 Enzyme Inhibition Scintillation Proximity Assay. It is filed as biochemical. Conditions: METHOD 1: PDE5 IC50, Table B, WO2004096810 examples. An excerpt:
Method 1: Human Platelet PDE5 Enzyme Inhibition Scintillation Proximity Assay
An in vitro assay can be used to evaluate the inhibition of PDE5 enzyme activity by a test compound.
The PDE5 enzyme for use in the assay can be obtained from human platelets by appropriate modification of the method of Thompson, W J et al.; Biochemistry 18(23), 5228-5237, 1979, as described by Ballard S A et al.; J. Urology 159(6), 2164-2171, 1998. The PDE5 enzyme isolated from human platelets can be used to catalyze the hydrolysis of [^3H]cGMP (Amersham Biosciences) to 5′ nucleotide [^3H]GMP. The [^3H]GMP binds to yttrium silicate SPA beads (Amersham Biosciences) and is detected by scintillation counting. More specifically, the effect of the test compound at different concentrations can be evaluated in the assay by contacting the compound with a fixed amount of PDE5 enzyme in the presence of substrate (cGMP or cAMP in a 3:1 ratio unlabelled to [^3H]-labeled). Scintillation counting can be used as described above to determine relative PDE5 enzyme activity. The inhibition of PDE5 enzyme activity is then calculated relative to total PDE5 enzyme activity of uninhibited controls.
PDE5 IC50 Assay: 96-well microtiter plate format
• Buffer A: 20 mM Tris-HCl, 5 mM MgCl2, pH 7.4 • Buffer B: 2 mg/ml BSA in Buffer A (enzyme buffer) • cGMP substrate: Final concentration of 500 nM in assay The amount of ^3H-labeled substrate added depends upon the specific activity of [^3H]cGMP, and the cGMP substrate is diluted with a 10 mM stock of cold cGMP in Buffer A for a final substrate concentration of 500 nM in the assay. • PDE enzyme: Prepared in Buffer B. The dilution factor is determined by enzyme activity. • SPA beads: 20 mg/ml suspension prepared in dH2O.
Stocks of standard and test compounds are prepared at 5 mM in 100% DMSO. The compound is serially diluted in a dilution plate using a 10-point ½ log dilution format. 2 μl of the compound dilution is added in duplicate to the wells of the assay plate. 2 μl of 100% DMSO are added to designated control wells. 25 μl of Buffer A are added to all wells. 25 μl of Buffer B are added to the negative control wells. 25 μl of enzyme are added to the remaining wells. 50 μl of substrate are added to each well. Plates are sealed and incubated for 60 minutes on a plate shaker at 30 C. 50 plof SPA beads are added to stop the reaction. The plates are again sealed and shaken for 15 minutes to allow the beads to bind the GMP product. The beads are allowed to settle for 30 minutes and then read on a NXT TopCount scintillation counter. Data are analyzed with a curve fitting application for plate-based screening. Percent inhibition in this assay is calculated as follows: Inhibition (%)=[(mean maximum−compound value/(mean maximum−mean minimum)]×100.
The IC50 value is determined from sigmoid dose-response curves of enzyme activity versus compound concentration.
For the compound `COCCNc1nc(Nc2cc(C)ccn2)c2c(n1)c(C)nn2CCOC` [WO2004096810 Example 93], the IC50 came out at 31.1 nM.
The value for `CCc1nn(CCOC)c2c(Nc3ccc(C)cn3)nc(N3CCOCC3)nc12` [WO2004096810 Example 108] was 778 nM.
Then `CCc1nn(CCOC)c2c(Nc3cc(C)n[nH]3)nc(NCCn3cccn3)nc12` [WO2004096810 Example 115], with 220 nM.
Then `CCOCCn1nc(C)c2nc(N3CCN[C@H](C)C3)nc(Nc3cc(C)ncn3)c21` [WO2004096810 Example 200], with 4.7 nM; and `COCCCn1nc(C)c2nc(N3CC[C@@H](O)C3)nc(Nc3cc(C)ccn3)c21` [WO2004096810 Example 100], with 67.2 nM; and `CCCc1nn(C)c2c(Nc3cc(C)ccn3)nc(N3CCN[C@H](C)C3)nc12` [WO2004096810 Example 40], with 334 nM.
With `CCc1nn(CCOC)c2c(Nc3ccc(C)cn3)nc(N3CCNCC3)nc12` [WO2004096810 Example 151], the IC50 was found to be 22 nM.
The value for `CCOCCn1nc(C)c2nc(N3CCN[C@H](C)C3)nc(Nc3cccc(C)n3)c21` [WO2004096810 Example 197] was 1.76 nM; that for `CCOCCn1nc(COC)c2nc(N(C)C)nc(Nc3cc(C)ccn3)c21` [WO2004096810 Example 185] was 1.3 nM.
`CCCc1nn(C)c2c(Nc3ncc[nH]3)nc(NC)nc12` [WO2004096810 Example 90] came in with an IC50 of 1550 nM.
Then `CCOCCn1nc(C)c2nc(N3C[C@@H]4C[C@H]3CN4)nc(Nc3cccc(C)n3)c21` [WO2004096810 Example 235], with above 100 nM.
For `CCCc1nn(C)c2c(NC3CCCC3)nc(N3CCNCC3)nc12` [WO2004096810 Example 129], 139 nM corresponded to half-maximal inhibition (IC50).
Then `CCOCCn1nc(C)c2nc(N(C)CC)nc(Nc3ccnc(C)n3)c21` [WO2004096810 Example 218], with 11.5 nM; and `CCOCCn1nc(C)c2nc(N(C)[C@@H]3CCN(C)C3)nc(Nc3ccncn3)c21` [WO2004096810 Example 157], with 16.7 nM.
Turning to `COCCn1nc(C(C)C)c2nc(N3CCNCC3)nc(Nc3ccc(C)cn3)c21` [WO2004096810 Example 179], the IC50 came to 18.3 nM.
For the compound `CCCc1nn(C)c2c(N[C@H]3CC[C@H](O)CC3)nc(N3CCNCC3)nc12` [WO2004096810 Example 126], the IC50 worked out at 2230 nM.
Then `CCOCCn1nc(COC)c2nc(N(C)CCO)nc(Nc3cc(C)ccn3)c21` [WO2004096810 Example 227], with 0.35 nM.
The value for `CCCc1nn(C)c2c(Nc3ccc(CC)cn3)nc(N3CCNCC3)nc12` [WO2004096810 Example 123] was 248 nM.
The value for `CCOCCn1nc(C)c2nc(N3CC(N(C)C)C3)nc(Nc3cc(C)ccn3)c21` [WO2004096810 Example 205] was 6.24 nM; that for `CCCc1nn(C)c2c(Nc3cc(OC)ncn3)nc(N3CCNCC3)nc12` [WO2004096810 Example 83] was 134 nM; that for `CCCc1nn(C)c2c(Nc3ccc(C)cn3)nc(N3CCC(O)CC3)nc12` [WO2004096810 Example 35] was 737 nM.
`CCCc1nn(C)c2c(Nc3cc(C)ccn3)nc(N)nc12` [WO2004096810 Example 77] came in with an IC50 above 10000 nM.
Then `COCCn1nc(C)c2nc(N3C[C@@H](C)NC[C@@H]3C)nc(Nc3ccncn3)c21` [WO2004096810 Example 144], with 5.34 nM; and `COCCn1nc(C(C)C)c2nc(N3CCN[C@H](C)C3)nc(Nc3ccc(C)cn3)c21` [WO2004096810 Example 8], with 6.95 nM.
Then `CCCc1nn(C)c2c(NC3CCCCC3)nc(N3CCNCC3)nc12` [WO2004096810 Example 124], with 78.2 nM; and `CCOCCn1nc(CC)c2nc(N3CCN[C@H](CC)C3)nc(Nc3ccncn3)c21` [WO2004096810 Example 19], with 0.49 nM.
The compound `CCOCCn1nc(COC)c2nc(N3CCC[C@H]3CO)nc(Nc3cc(C)ccn3)c21` [WO2004096810 Example 213] registered an IC50 of 0.42 nM.

What is called IC50 is the midpoint of a concentration-inhibition curve. Low values mean greater potency, high ones weaker potency.
